Patent US20240316023A1, “BENEDIN, PIPERIDINE, 2-BENZHYDRYL-3-HYDROXY-N-METHYL-, HYDROCHLORIDE AND DERIVATIVES THEREOF FOR USE IN TREATING KLEINE-LEVIN SYNDROME” (priority 2021, published 2024)

Assays:
[1] = target: T1, NET (h) (antagonist radioligand) (Homo sapiens, UniProt P23975); assay: Radioligand binding panel (Eurofins/CEREP), NET; details: % inhibition of control specific binding
T1 construct: CEREP (Eurofins, France), contract panel
Experimental: (§1) Benedin was tested at 10^−5 M, calculated as a % inhibition of control specific binding of a radioactively labeled ligand specific for each target.
(§2) This binding profile panel was broadly defined with roughly an equal number of selective, central and peripheral therapeutically relevant targets, including native animal tissues, radioligands and specific enzymes involved in cell cycle regulation in accordance with Eurofins Standard Operating Procedure.
(§3) For radioligand binding experiments, the half maximal inhibitory concentration (IC50) and the half maximal effective concentration (EC50) values were determined (via computer software) by nonlinear regression analysis of the competition curves using Hill equation curve fitting. The inhibition constants (Ki) were calculated using the Cheng-Prusoff equation (Ki=IC50/(1+(L/KD)), where L is the concentration of radioligand in the assay, and KD is the affinity of the radioligand for the receptor.^60
(§4) The results are expressed as a % control specific binding ([measured specific binding/control specific binding]×100) and as a % inhibition of control specific binding (100−[(measured specific binding/control specific binding)×100] obtained in the presence of the test compounds. […]

[2] = target: T2, RXFP3 (h) (agonist radioligand) (Homo sapiens, UniProt Q9NSD7); assay: GPCR Biosensor cAMP Hunter assay, RXFP3; format: cell-based
T2 sequence (Q9NSD7 1-469): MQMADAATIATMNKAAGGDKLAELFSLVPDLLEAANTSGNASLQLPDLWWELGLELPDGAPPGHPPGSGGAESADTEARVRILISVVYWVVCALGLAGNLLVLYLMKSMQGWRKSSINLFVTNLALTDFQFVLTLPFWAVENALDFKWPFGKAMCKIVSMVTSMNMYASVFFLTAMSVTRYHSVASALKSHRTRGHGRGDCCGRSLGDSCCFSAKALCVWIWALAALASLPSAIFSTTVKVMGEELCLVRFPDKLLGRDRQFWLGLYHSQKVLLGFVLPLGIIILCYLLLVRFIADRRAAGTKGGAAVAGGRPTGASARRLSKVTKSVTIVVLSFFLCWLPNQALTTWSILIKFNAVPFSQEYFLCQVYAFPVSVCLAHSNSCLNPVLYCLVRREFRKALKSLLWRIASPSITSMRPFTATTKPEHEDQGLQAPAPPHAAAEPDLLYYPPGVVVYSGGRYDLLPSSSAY
Experimental: Benedin is found to weakly bind with RXFP4 and RXFP3 receptors (Study FR095-0024749-Q Eurofins/leadHunter Jun. 25, 2021; unpublished data) (Table 2).
In these assays' compounds were tested in agonist and antagonist mode with the GPCR Biosensor Assays and match to this design:
1. cAMP Hunter cell lines were expanded from freezer stocks according to standard procedures.
2. Cells were seeded in a total volume of 20 μL into white walled, 384-well microplates and incubated at 37° C. for the appropriate time prior to testing.
3. cAMP modulation was determined using the DiscoverX HitHunter CAMP XS+assay.
1. For agonist determination, cells were incubated with sample in the presence of EC80 forskolin to induce response.
2. Media was aspirated from cells and replaced with 15 μL 2:1 HBSS/10 mM Hepes: CAMP XS+Ab reagent. […]
2. Microplates were read following signal generation with a PerkinElmer Envision™ instrument for chemiluminescent signal detection.
5. For Gi agonist mode assays, percentage activity is calculated using the following formula: % Activity=100%×(1−(mean RLU of test sample-mean RLU of MAX control)/(mean RLU of vehicle control−mean RLU of MAX control)).
8. For Gi antagonist or negative allosteric mode assays, percentage inhibition is calculated using the following formula: % Inhibition=100%×(mean RLU of test sample−mean RLU of EC80 control)/(mean RLU of forskolin positive control−mean RLU of […]

[3] = target: T3, DAT (h) (antagonist radioligand) (Homo sapiens, UniProt Q01959); assay: Radioligand binding panel (Eurofins/CEREP), DAT; details: % inhibition of control specific binding
T3 construct: CEREP (Eurofins, France), contract panel
T3 sequence (Q01959 whole entry): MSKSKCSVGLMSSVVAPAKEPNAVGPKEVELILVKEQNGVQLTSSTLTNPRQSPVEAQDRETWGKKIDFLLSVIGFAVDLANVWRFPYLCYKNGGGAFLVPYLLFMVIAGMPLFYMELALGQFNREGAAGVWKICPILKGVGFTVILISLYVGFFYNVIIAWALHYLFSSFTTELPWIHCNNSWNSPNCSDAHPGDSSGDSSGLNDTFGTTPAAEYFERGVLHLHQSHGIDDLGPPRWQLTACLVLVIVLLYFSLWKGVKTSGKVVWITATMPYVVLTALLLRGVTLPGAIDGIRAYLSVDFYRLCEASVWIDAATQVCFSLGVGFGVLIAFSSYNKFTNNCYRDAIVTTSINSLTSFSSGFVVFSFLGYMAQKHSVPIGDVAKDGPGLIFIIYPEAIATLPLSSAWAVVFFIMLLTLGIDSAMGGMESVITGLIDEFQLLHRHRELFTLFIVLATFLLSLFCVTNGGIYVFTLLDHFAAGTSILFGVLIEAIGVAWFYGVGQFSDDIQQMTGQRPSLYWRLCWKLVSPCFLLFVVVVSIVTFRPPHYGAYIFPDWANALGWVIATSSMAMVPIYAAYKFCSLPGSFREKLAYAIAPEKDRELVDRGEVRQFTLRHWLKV
Experimental: as §1, §2, §3, §4

[4] = 10^−5 M, read-out: % Inhibition at 10^−5M Benedin

T1 sequence (P23975 whole entry): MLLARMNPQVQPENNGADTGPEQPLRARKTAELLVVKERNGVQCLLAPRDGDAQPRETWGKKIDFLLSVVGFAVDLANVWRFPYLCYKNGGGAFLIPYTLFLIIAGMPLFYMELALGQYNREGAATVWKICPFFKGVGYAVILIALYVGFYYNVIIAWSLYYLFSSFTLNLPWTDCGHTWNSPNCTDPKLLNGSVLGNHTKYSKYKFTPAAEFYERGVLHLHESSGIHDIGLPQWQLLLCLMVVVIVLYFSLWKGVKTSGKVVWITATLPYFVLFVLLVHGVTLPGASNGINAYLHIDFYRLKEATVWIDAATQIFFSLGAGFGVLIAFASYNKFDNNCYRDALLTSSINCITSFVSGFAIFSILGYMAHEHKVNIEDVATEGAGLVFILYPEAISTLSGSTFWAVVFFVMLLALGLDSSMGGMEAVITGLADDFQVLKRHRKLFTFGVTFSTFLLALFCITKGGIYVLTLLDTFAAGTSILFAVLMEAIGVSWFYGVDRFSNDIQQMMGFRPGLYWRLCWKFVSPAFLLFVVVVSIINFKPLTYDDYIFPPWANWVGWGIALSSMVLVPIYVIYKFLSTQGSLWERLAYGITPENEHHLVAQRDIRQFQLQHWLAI

Compound: CN1CCCC(O)C1C(c1ccccc1)c1ccccc1 (stereo not drawn) [Benedin, 2-benzhydryl-3-hydroxy-N-methyl-piperidine]
- inhibition at 10 µM [1, 4]: 71.9%
- % Inhibition at 10^−5M Benedin [1]: appreciable potencies
- % Inhibition at 10^−5M Benedin [2]: weakly bind
- inhibition at 10 µM [2, 4]: 21.4%
- inhibition at 10 µM [3, 4]: 99.1%
- % Inhibition at 10^−5M Benedin [3]: appreciable potencies
